This note sets out measurements from ChEMBL document CHEMBL3632542, “A computational view on the significance of E-ring in binding of (+)-arisugacin A to acetylcholinesterase” (Bioorg Med Chem Lett, 2015).

The target in the test is Acetylcholinesterase (Homo sapiens, UniProt P22303). In words: Inhibition of human AChE.
Acetylcholinesterase, sequence (P22303 whole entry): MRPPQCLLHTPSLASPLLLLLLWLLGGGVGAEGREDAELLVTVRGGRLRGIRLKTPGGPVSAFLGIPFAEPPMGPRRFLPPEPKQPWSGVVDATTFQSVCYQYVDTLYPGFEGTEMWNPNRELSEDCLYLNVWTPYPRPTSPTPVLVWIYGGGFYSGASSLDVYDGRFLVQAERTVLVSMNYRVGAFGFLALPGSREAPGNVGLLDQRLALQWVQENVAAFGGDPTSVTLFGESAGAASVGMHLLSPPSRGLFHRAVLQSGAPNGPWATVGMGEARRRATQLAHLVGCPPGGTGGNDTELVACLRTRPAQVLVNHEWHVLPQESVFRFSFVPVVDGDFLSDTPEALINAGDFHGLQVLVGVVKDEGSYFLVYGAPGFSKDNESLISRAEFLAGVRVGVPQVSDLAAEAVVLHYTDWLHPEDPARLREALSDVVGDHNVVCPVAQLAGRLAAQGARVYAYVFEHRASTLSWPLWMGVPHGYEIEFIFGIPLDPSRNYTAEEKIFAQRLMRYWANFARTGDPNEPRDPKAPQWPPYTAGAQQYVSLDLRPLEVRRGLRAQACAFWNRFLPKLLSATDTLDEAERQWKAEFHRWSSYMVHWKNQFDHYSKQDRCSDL

Broadly, the IC50 is the point on the concentration scale where inhibition reaches its midpoint. For `COc1ccc(-c2cc3c(c(=O)o2)C[C@]2(O)[C@@]4(C)[C@@H](O)C[C@@H](OC(C)=O)C(C)(C)[C@]4(O)CC[C@@]2(C)O3)cc1`, the IC50 is over 100000 nM. Compound `COc1ccc(-c2cc3c(c(=O)o2)C[C@@H]2[C@@]4(C)CC[C@H](O)C(C)(C)[C@@H]4CC[C@@]2(C)O3)cc1` came in with an IC50 of over 100000 nM. `COc1ccc(-c2cc3c(c(=O)o2)C[C@H]2[C@@](C)(CC[C@@]4(O)C(C)(C)C(=O)CC[C@]24C)O3)cc1`: the IC50 amounted to 2500 nM. In the case of `COc1cc(-c2cc3c(c(=O)o2)C[C@]2(O)[C@@]4(C)C(=O)C=CC(C)(C)[C@]4(O)CC[C@@]2(C)O3)cc(OC)c1O`, the IC50 was 6.8 nM. To `COc1cc(-c2cc3c(c(=O)o2)C[C@]2(O)[C@@]4(C)C(=O)C=CC(C)(C)[C@]4(O)CC[C@@]2(C)O3)cc(OC)c1OC` [TERRITREM B] belongs 7.6 nM; to `COc1ccc(-c2cc3c(c(=O)o2)C[C@H]2[C@@](C)(CC[C@@]4(O)C(C)(C)[C@H](O)CC[C@]24C)O3)cc1`, over 100000 nM. On to `COc1ccc(-c2cc3c(c(=O)o2)C[C@@H]2[C@@]4(C)CCC(=O)C(C)(C)[C@@H]4CC[C@@]2(C)O3)cc1`, for which the IC50 was over 100000 nM.

`COc1ccc(-c2cc3c(c(=O)o2)C[C@]2(O)[C@@]4(C)CC[C@@H](OC(C)=O)C(C)(C)[C@]4(O)CC[C@@]2(C)O3)cc1`: it took 3500 nM to reach half-maximal inhibition (IC50).
